In ChEMBL document CHEMBL5058645, “Data for DCP probe JNJ-6204” (2022):

Assays:
[1] = target: Interferon-induced, double-stranded RNA-activated protein kinase (Homo sapiens) (UniProt P19525); test: PKR(h) Kinase panel; details: Compound concentration 1.0 uM, tested as the 2H-labelled form
[2] = target: Ribosomal protein S6 kinase alpha-6 (Homo sapiens) (UniProt Q9UK32); test: Rsk4(h) Kinase panel; details: Compound concentration 1.0 uM, tested as the 2H-labelled form
[3] = target: 5-hydroxytryptamine receptor 2A (Homo sapiens) (UniProt P28223); details: Compound concentration 10.0 uM, tested as the 2H-labelled form
[4] = target: Discoidin domain-containing receptor 2 (Homo sapiens) (UniProt Q16832); test: DDR2(h) Kinase panel; details: Compound concentration 1.0 uM, tested as the 2H-labelled form
[5] = target: Mitogen-activated protein kinase kinase kinase 21 (Homo sapiens) (UniProt Q5TCX8); test: MLK4(h) Kinase panel; details: Compound concentration 1.0 uM, tested as the 2H-labelled form
[6] = target: Serine/threonine-protein kinase MARK2 (Homo sapiens) (UniProt Q7KZI7); test: PAR-1Balpha(h) Kinase panel; details: Compound concentration 1.0 uM, tested as the 2H-labelled form
[7] = target: Cyclin-dependent kinase 12 (Homo sapiens) (UniProt Q9NYV4); test: CDK12/cyclinK(h) Kinase panel; details: Compound concentration 1.0 uM, tested as the 2H-labelled form
[8] = target: Serine/threonine-protein kinase TAO2 (Homo sapiens) (UniProt Q9UL54); test: TAO2(h) Kinase panel; details: Compound concentration 1.0 uM, tested as the 2H-labelled form
[9] = target: Serine/threonine-protein kinase ULK2 (Homo sapiens) (UniProt Q8IYT8); test: ULK2(h) Kinase panel; details: Compound concentration 1.0 uM, tested as the 2H-labelled form
[10] = target: [Pyruvate dehydrogenase (acetyl-transferring)] kinase isozyme 2, mitochondrial (Homo sapiens) (UniProt Q15119); test: PDHK2(h) Kinase panel; details: Compound concentration 1.0 uM, tested as the 2H-labelled form
[11] = target: Serine/threonine-protein kinase WNK4 (Homo sapiens) (UniProt Q96J92); test: WNK4(h) Kinase panel; details: Compound concentration 1.0 uM, tested as the 2H-labelled form
Sequence of Serine/threonine-protein kinase WNK4 (Homo sapiens) (Q96J92 whole entry): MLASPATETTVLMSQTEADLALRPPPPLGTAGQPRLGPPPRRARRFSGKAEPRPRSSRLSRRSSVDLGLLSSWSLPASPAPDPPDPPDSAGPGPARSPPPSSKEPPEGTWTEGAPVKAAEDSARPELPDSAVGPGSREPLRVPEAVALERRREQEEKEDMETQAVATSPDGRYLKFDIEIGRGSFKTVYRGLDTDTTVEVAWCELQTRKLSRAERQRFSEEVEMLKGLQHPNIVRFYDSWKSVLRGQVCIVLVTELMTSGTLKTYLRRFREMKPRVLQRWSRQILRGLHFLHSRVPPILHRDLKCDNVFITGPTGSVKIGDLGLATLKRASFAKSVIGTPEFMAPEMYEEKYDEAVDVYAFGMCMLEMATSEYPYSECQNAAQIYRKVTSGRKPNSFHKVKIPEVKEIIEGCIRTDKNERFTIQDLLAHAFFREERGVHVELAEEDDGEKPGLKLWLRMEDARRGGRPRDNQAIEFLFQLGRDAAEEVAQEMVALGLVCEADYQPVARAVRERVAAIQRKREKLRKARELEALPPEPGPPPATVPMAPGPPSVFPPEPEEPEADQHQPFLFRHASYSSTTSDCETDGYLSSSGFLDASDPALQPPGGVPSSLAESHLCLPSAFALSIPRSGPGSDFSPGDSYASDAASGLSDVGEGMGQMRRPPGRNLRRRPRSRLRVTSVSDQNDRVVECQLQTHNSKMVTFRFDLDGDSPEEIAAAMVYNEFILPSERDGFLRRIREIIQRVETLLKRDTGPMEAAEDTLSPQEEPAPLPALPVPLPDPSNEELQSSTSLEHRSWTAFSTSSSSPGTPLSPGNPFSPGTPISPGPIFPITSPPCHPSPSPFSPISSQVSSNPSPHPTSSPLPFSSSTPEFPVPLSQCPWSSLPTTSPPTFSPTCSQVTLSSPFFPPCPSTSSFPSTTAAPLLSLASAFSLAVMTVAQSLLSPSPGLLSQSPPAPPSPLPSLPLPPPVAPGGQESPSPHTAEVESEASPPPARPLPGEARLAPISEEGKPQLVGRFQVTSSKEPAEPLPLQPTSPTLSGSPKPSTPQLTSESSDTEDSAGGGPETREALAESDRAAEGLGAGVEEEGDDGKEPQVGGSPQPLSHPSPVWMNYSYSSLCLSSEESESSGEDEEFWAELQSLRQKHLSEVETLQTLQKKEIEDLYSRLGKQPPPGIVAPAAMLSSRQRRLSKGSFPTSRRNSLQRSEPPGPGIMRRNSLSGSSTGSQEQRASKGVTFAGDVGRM

[12] = target: Serine/threonine-protein kinase SIK1 (Homo sapiens) (UniProt P57059); test: SIK(h) Kinase panel; details: Compound concentration 1.0 uM, tested as the 2H-labelled form
Sequence of Serine/threonine-protein kinase SIK1 (Homo sapiens) (P57059 whole entry, the tested form may be a part): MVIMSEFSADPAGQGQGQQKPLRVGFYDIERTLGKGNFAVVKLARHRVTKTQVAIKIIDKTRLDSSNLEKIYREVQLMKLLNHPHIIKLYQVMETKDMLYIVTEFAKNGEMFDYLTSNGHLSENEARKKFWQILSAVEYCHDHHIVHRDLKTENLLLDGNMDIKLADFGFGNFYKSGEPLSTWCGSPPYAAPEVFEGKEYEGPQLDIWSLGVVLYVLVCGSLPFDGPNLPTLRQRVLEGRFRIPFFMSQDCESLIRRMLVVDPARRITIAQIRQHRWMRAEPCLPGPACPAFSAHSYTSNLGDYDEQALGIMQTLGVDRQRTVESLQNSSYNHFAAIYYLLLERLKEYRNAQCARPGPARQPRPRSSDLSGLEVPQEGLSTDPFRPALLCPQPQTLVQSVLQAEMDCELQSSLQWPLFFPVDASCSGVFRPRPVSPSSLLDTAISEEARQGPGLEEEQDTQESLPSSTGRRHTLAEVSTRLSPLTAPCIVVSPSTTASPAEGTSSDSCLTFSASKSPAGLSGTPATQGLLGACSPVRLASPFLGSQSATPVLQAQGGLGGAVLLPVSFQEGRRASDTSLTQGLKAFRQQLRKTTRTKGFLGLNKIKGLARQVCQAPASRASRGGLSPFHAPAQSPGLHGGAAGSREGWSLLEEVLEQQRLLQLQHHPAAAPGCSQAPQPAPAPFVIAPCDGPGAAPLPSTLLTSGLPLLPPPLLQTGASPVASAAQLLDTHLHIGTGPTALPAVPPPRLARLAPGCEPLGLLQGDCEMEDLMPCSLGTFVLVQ

[13] = target: PAS domain-containing serine/threonine-protein kinase (Homo sapiens) (UniProt Q96RG2); test: PASK(h) Kinase panel; details: Compound concentration 1.0 uM, tested as the 2H-labelled form
[14] = target: Tyrosine-protein kinase ZAP-70 (Homo sapiens) (UniProt P43403); test: ZAP-70(h) Kinase panel; details: Compound concentration 1.0 uM, tested as the 2H-labelled form
[15] = target: Serine/threonine-protein kinase MRCK beta (Homo sapiens) (UniProt Q9Y5S2); test: MRCKbeta(h) Kinase panel; details: Compound concentration 1.0 uM, tested as the 2H-labelled form
[16] = target: Dual specificity mitogen-activated protein kinase kinase 2 (Homo sapiens) (UniProt P36507); test: MEK2(h) Kinase panel; details: Compound concentration 1.0 uM, tested as the 2H-labelled form
[17] = target: Cyclin-dependent kinase 6 (Homo sapiens) (UniProt Q00534); test: CDK6/cyclinD3(h) Kinase panel; details: Compound concentration 1.0 uM, tested as the 2H-labelled form
[18] = target: Ephrin type-B receptor 2 (Homo sapiens) (UniProt P29323); test: EphB2(h) Kinase panel; details: Compound concentration 1.0 uM, tested as the 2H-labelled form
[19] = target: Wee1-like protein kinase (Homo sapiens) (UniProt P30291); test: Wee1(h) Kinase panel; details: Compound concentration 1.0 uM, tested as the 2H-labelled form
[20] = target: Proto-oncogene tyrosine-protein kinase Src (Homo sapiens) (UniProt P12931); test: cSRC(h) Kinase panel; details: Compound concentration 1.0 uM, tested as the 2H-labelled form
[21] = target: NT-3 growth factor receptor (Homo sapiens) (UniProt Q16288); test: TrkC(h) Kinase panel; details: Compound concentration 1.0 uM, tested as the 2H-labelled form
[22] = target: Myosin light chain kinase 2, skeletal/cardiac muscle (Homo sapiens) (UniProt Q9H1R3); test: MYLK2(h) Kinase panel; details: Compound concentration 1.0 uM, tested as the 2H-labelled form
[23] = target: Calcium/calmodulin-dependent protein kinase kinase 1 (Homo sapiens) (UniProt Q8N5S9); test: CaMKK1(h) Kinase panel; details: Compound concentration 1.0 uM, tested as the 2H-labelled form
[24] = target: Tau-tubulin kinase 2 (Homo sapiens) (UniProt Q6IQ55); test: TTBK2(h) Kinase panel; details: Compound concentration 1.0 uM, tested as the 2H-labelled form
[25] = target: SRSF protein kinase 3 (Homo sapiens) (UniProt Q9UPE1); test: MSSK1(h) Kinase panel; details: Compound concentration 1.0 uM, tested as the 2H-labelled form
[26] = target: Dual specificity protein kinase CLK3 (Homo sapiens) (UniProt P49761); test: CLK3(h) Kinase panel; details: Compound concentration 1.0 uM, tested as the 2H-labelled form
[27] = target: Serine/threonine-protein kinase/endoribonuclease IRE1 (Homo sapiens) (UniProt O75460); test: IRE1(h) Kinase panel; details: Compound concentration 1.0 uM, tested as the 2H-labelled form
[28] = target: Calcium/calmodulin-dependent protein kinase kinase 2 (Homo sapiens) (UniProt Q96RR4); test: CaMKK2(h) Kinase panel; details: Compound concentration 1.0 uM, tested as the 2H-labelled form
[29] = target: Serine/threonine-protein kinase BRSK1 (Homo sapiens) (UniProt Q8TDC3); test: BrSK1(h) Kinase panel; details: Compound concentration 1.0 uM, tested as the 2H-labelled form
[30] = target: Tyrosine-protein kinase ABL2 (Homo sapiens) (UniProt P42684); test: Arg(h) Kinase panel; details: Compound concentration 1.0 uM, tested as the 2H-labelled form
[31] = target: Serine/threonine-protein kinase OSR1 (Homo sapiens) (UniProt O95747); test: OSR1(h) Kinase panel; details: Compound concentration 1.0 uM, tested as the 2H-labelled form
Sequence of Serine/threonine-protein kinase OSR1 (Homo sapiens) (O95747 2-527 limits assumed): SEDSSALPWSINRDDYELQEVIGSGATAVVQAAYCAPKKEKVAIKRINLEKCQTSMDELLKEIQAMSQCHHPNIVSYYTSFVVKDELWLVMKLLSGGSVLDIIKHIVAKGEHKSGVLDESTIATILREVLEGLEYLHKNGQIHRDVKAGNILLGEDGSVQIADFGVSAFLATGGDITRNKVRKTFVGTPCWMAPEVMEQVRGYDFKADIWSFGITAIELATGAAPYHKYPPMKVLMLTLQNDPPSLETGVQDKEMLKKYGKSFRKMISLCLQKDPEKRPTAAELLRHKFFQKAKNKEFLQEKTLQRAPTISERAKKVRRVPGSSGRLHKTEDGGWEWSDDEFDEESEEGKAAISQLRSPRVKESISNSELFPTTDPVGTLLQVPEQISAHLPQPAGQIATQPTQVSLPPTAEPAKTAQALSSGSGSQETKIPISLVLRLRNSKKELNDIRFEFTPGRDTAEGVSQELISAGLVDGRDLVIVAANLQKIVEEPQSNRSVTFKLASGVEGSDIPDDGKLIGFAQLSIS

[32] = target: Serine/threonine-protein kinase A-Raf (Homo sapiens) (UniProt P10398); test: A-Raf(h) Kinase panel; details: Compound concentration 1.0 uM, tested as the 2H-labelled form
[33] = target: Calcium/calmodulin-dependent protein kinase type 1 (Homo sapiens) (UniProt Q14012); test: CaMKI(h) Kinase panel; details: Compound concentration 1.0 uM, tested as the 2H-labelled form
Sequence of Calcium/calmodulin-dependent protein kinase type 1 (Homo sapiens) (Q14012 whole entry, looked up): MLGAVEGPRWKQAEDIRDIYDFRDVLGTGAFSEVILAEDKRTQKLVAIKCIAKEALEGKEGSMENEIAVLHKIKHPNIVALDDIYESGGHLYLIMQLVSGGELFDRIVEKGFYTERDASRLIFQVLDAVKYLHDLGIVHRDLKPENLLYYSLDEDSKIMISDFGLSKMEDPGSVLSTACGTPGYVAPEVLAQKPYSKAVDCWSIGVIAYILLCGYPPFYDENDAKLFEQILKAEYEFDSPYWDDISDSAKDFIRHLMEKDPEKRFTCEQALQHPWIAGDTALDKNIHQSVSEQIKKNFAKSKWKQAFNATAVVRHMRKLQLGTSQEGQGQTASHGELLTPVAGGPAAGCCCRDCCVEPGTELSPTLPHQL

[34] = target: Beta-adrenergic receptor kinase 1 (Homo sapiens) (UniProt P25098); test: GRK2(h) Kinase panel; details: Compound concentration 1.0 uM, tested as the 2H-labelled form
[35] = target: Calcium/calmodulin-dependent protein kinase type 1D (Homo sapiens) (UniProt Q8IU85); test: CaMKIdelta(h) Kinase panel; details: Compound concentration 1.0 uM, tested as the 2H-labelled form
Sequence of Calcium/calmodulin-dependent protein kinase type 1D (Homo sapiens) (Q8IU85 whole entry, looked up): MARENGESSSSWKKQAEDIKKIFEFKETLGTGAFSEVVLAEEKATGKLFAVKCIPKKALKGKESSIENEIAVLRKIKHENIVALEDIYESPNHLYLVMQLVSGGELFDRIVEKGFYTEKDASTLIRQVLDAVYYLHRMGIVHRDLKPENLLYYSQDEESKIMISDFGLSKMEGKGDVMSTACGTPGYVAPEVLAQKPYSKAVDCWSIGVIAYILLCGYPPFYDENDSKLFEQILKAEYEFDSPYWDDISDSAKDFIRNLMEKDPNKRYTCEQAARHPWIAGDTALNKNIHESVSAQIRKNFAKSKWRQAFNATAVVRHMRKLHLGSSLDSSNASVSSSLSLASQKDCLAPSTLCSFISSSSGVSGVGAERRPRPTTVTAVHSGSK

[36] = target: Serine/threonine-protein kinase LATS1 (Homo sapiens) (UniProt O95835); test: LATS1(h) Kinase panel; details: Compound concentration 1.0 uM, tested as the 2H-labelled form
D(3) dopamine receptor = D(3) dopamine receptor (Homo sapiens, UniProt P35462); details: Compound concentration 10.0 uM, tested as the 2H-labelled form
[37] = target: Testis-specific serine/threonine-protein kinase 2 (Homo sapiens) (UniProt Q96PF2); test: TSSK2(h) Kinase panel; details: Compound concentration 1.0 uM, tested as the 2H-labelled form
[38] = target: Serine/threonine-protein kinase PAK 5 (Homo sapiens) (UniProt Q9P286); test: PAK5(h) Kinase panel; details: Compound concentration 1.0 uM, tested as the 2H-labelled form
[39] = target: Aurora kinase A (Homo sapiens) (UniProt O14965); test: Aurora-A(h) Kinase panel; details: Compound concentration 1.0 uM, tested as the 2H-labelled form
[40] = target: 5-hydroxytryptamine receptor 6 (Homo sapiens) (UniProt P50406); details: Compound concentration 10.0 uM, tested as the 2H-labelled form
[41] = target: Muscarinic acetylcholine receptor M1 (Homo sapiens) (UniProt P11229); details: Compound concentration 10.0 uM, tested as the 2H-labelled form
[42] = target: Tyrosine-protein kinase TXK (Homo sapiens) (UniProt P42681); test: Txk(h) Kinase panel; details: Compound concentration 1.0 uM, tested as the 2H-labelled form
Sequence of Tyrosine-protein kinase TXK (Homo sapiens) (P42681 whole entry): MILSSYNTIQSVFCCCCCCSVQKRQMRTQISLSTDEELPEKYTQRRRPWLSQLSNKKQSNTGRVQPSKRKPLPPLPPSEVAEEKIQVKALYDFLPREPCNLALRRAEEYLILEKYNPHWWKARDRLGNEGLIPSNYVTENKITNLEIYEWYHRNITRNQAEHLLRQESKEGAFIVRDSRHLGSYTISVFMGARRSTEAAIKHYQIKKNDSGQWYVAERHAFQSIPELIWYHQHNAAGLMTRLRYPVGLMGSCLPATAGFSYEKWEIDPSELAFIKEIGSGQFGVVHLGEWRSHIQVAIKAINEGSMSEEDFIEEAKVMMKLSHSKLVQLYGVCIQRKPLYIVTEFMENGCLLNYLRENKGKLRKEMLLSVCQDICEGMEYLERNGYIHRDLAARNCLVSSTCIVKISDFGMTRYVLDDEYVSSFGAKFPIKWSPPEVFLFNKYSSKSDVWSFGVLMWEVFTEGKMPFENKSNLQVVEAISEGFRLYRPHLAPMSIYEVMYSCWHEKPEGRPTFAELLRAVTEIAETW

[43] = target: Fibroblast growth factor receptor 2 (Homo sapiens) (UniProt P21802); test: FGFR2(h) Kinase panel; details: Compound concentration 1.0 uM, tested as the 2H-labelled form
Sequence of Fibroblast growth factor receptor 2 (Homo sapiens) (P21802 22-821 limits assumed): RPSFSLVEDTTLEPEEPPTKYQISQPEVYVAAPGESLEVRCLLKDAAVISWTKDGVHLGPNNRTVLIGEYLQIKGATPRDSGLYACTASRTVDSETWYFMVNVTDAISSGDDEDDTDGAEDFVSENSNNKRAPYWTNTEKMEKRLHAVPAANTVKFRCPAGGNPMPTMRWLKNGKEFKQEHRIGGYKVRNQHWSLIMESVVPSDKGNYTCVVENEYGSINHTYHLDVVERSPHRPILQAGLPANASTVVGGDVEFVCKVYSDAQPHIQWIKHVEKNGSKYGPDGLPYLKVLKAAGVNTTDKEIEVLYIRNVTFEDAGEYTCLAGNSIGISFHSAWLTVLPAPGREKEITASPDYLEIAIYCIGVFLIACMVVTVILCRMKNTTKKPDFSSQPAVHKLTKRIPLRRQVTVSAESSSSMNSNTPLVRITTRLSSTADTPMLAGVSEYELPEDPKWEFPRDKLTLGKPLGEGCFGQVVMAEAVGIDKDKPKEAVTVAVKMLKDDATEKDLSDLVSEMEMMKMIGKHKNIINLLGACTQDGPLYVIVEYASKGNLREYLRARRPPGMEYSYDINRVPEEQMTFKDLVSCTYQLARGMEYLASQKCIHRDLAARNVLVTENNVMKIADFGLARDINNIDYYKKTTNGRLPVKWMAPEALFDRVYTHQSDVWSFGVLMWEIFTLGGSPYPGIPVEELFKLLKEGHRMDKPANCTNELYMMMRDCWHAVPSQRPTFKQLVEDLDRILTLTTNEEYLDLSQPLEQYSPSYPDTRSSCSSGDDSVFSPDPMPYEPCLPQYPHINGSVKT

[44] = target: Casein kinase I isoform alpha (Homo sapiens, UniProt P48729); test: CK1alpha(h) Kinase panel; details: Compound concentration 1.0 uM, tested as the 2H-labelled form
Sequence of Casein kinase I isoform alpha (P48729 2-337 limits assumed): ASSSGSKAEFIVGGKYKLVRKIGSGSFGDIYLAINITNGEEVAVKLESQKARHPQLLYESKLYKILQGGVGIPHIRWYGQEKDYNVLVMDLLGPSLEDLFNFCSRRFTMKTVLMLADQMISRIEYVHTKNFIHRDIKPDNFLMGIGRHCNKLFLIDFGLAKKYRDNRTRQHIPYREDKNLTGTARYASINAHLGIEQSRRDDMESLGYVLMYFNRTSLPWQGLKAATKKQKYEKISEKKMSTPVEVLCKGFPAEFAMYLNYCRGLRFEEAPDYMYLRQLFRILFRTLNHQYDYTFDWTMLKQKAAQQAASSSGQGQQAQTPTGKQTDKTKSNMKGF

[45] = target: SRSF protein kinase 1 (Homo sapiens) (UniProt Q96SB4); test: SRPK1(h) Kinase panel; details: Compound concentration 1.0 uM, tested as the 2H-labelled form
[46] = target: Proto-oncogene tyrosine-protein kinase ROS (Homo sapiens) (UniProt P08922); test: Ros(h) Kinase panel; details: Compound concentration 1.0 uM, tested as the 2H-labelled form
[47] = target: Alpha-2B adrenergic receptor (Homo sapiens) (UniProt P18089); details: Compound concentration 10.0 uM, tested as the 2H-labelled form
Rattus norvegicus = species: Rattus norvegicus; details: Compound concentration 10.0 uM, tested as the 2H-labelled form
[48] = target: Tyrosine-protein kinase FRK (Homo sapiens) (UniProt P42685); test: PTK5(h) Kinase panel; details: Compound concentration 1.0 uM, tested as the 2H-labelled form
Homo sapiens = species: Homo sapiens; test: MAPK2(h) Kinase panel; details: Compound concentration 1.0 uM, tested as the 2H-labelled form
[49] = target: Dual specificity tyrosine-phosphorylation-regulated kinase 2 (Homo sapiens) (UniProt Q92630); test: DYRK2(h) Kinase panel; details: Compound concentration 1.0 uM, tested as the 2H-labelled form

inhibition [1]: 4% | inhibition [2]: 23% | inhibition [3]: 16.5% | inhibition [4]: 8% | inhibition [5]: 20% | inhibition [6]: 15% | inhibition [7]: -2% | inhibition [8]: 18% | inhibition [9]: 17% | inhibition [10]: 26% | inhibition [11]: 10% | inhibition [12]: -9% | inhibition [13]: 24% | inhibition [14]: 12% | inhibition [15]: 2% | inhibition [16]: 4% | inhibition [17]: -7% | inhibition [18]: 3% | inhibition [19]: 10% | inhibition [20]: 15% | inhibition [21]: 23% | inhibition [22]: 23% | inhibition [23]: 2% | inhibition [24]: 0% | inhibition [25]: -8% | inhibition [26]: -9% | inhibition [27]: 0% | inhibition [28]: -9% | inhibition [29]: 13% | inhibition [30]: 7% | inhibition [31]: 9% | inhibition [32]: 12% | inhibition [33]: 5% | inhibition [34]: -8% | inhibition [35]: -1% | inhibition [36]: 20% | inhibition (D(3) dopamine receptor): -0.66% | inhibition [37]: 11% | inhibition [38]: 2% | inhibition [39]: -6% | inhibition [40]: -1.55% | inhibition [41]: -1.28% | inhibition [42]: 16% | inhibition [43]: 11% | inhibition [44]: 73% | inhibition [45]: 2% | inhibition [46]: -2% | inhibition [47]: 2.83% | inhibition (Rattus norvegicus): 50.9% | inhibition [48]: 11% | inhibition (Homo sapiens): 6% | inhibition [49]: 0%
SMILES: CC1(C)Cn2nc(-c3ccc(F)cn3)c(-c3ccnc4[nH]ncc34)c2CO1
